# ± gives the expanded uncertainty stated by the source.
# Experiment: xn = mol fraction of the nth substance listed
# Conditions: 101 kPa, Liquid
smiles,measurement,setting,value
CC#N [acetonitrile] + O,mass density,"298.15 K, x1 = 0.051",978.98 ± 0.63 kg/m3
same,viscosity,"298.15 K, x1 = 0.051",0.9849 ± 0.012 mPa·s
same,mass density,"298.15 K, x1 = 0.1169",954.73 ± 0.78 kg/m3
same,viscosity,"298.15 K, x1 = 0.1169",0.9567 ± 0.012 mPa·s
same,mass density,"298.15 K, x1 = 0.1971",924.74 ± 0.97 kg/m3
same,viscosity,"298.15 K, x1 = 0.1971",0.8743 ± 0.011 mPa·s
same,mass density,"298.15 K, x1 = 0.2728",900.14 ± 1.1 kg/m3
same,viscosity,"298.15 K, x1 = 0.2728",0.7891 ± 0.01 mPa·s
same,mass density,"298.15 K, x1 = 0.3601",876.35 ± 1.3 kg/m3
same,viscosity,"298.15 K, x1 = 0.3601",0.6953 ± 0.0091 mPa·s
same,mass density,"298.15 K, x1 = 0.4417",857.17 ± 1.4 kg/m3
same,viscosity,"298.15 K, x1 = 0.4417",0.6061 ± 0.0081 mPa·s
same,mass density,"298.15 K, x1 = 0.5204",841.27 ± 1.5 kg/m3
same,viscosity,"298.15 K, x1 = 0.5204",0.5387 ± 0.0074 mPa·s
same,mass density,"298.15 K, x1 = 0.6012",826.9 ± 1.6 kg/m3
same,viscosity,"298.15 K, x1 = 0.6012",0.4802 ± 0.0068 mPa·s
same,mass density,"298.15 K, x1 = 0.6671",816.3 ± 1.6 kg/m3
same,viscosity,"298.15 K, x1 = 0.6671",0.4415 ± 0.0063 mPa·s
same,mass density,"298.15 K, x1 = 0.7398",805.64 ± 1.7 kg/m3
same,viscosity,"298.15 K, x1 = 0.7398",0.4064 ± 0.006 mPa·s
same,mass density,"298.15 K, x1 = 0.8253",794.81 ± 1.8 kg/m3
same,viscosity,"298.15 K, x1 = 0.8253",0.3722 ± 0.0056 mPa·s
same,mass density,"298.15 K, x1 = 0.886",787.78 ± 1.8 kg/m3
same,viscosity,"298.15 K, x1 = 0.886",0.3561 ± 0.0054 mPa·s
same,mass density,"298.15 K, x1 = 0.9389",782.44 ± 1.9 kg/m3
same,viscosity,"298.15 K, x1 = 0.9389",0.3478 ± 0.0053 mPa·s
same,viscosity,"298.15 K, x1 = 0.999",0.3418 ± 0.0053 mPa·s
same,mass density,"298.15 K, x1 = 1",776.69 ± 1.9 kg/m3
same,viscosity,"298.15 K, x1 = 1",0.3417 ± 0.0053 mPa·s
same,mass density,"303.15 K, x1 = 0.051",975.65 ± 0.65 kg/m3
same,viscosity,"303.15 K, x1 = 0.051",0.8799 ± 0.011 mPa·s
same,mass density,"303.15 K, x1 = 0.1169",951.24 ± 0.8 kg/m3
same,viscosity,"303.15 K, x1 = 0.1169",0.8628 ± 0.011 mPa·s
same,mass density,"303.15 K, x1 = 0.1971",921.1 ± 0.99 kg/m3
same,viscosity,"303.15 K, x1 = 0.1971",0.7931 ± 0.01 mPa·s
same,mass density,"303.15 K, x1 = 0.2728",896.29 ± 1.1 kg/m3
same,viscosity,"303.15 K, x1 = 0.2728",0.7152 ± 0.0093 mPa·s
same,mass density,"303.15 K, x1 = 0.3601",872.19 ± 1.3 kg/m3
same,viscosity,"303.15 K, x1 = 0.3601",0.6298 ± 0.0084 mPa·s
same,mass density,"303.15 K, x1 = 0.4417",852.79 ± 1.4 kg/m3
same,viscosity,"303.15 K, x1 = 0.4417",0.5574 ± 0.0076 mPa·s
same,mass density,"303.15 K, x1 = 0.5204",836.65 ± 1.5 kg/m3
same,viscosity,"303.15 K, x1 = 0.5204",0.4972 ± 0.0069 mPa·s
same,mass density,"303.15 K, x1 = 0.6012",822.15 ± 1.6 kg/m3
same,viscosity,"303.15 K, x1 = 0.6012",0.4473 ± 0.0064 mPa·s
same,mass density,"303.15 K, x1 = 0.6671",811.49 ± 1.7 kg/m3
same,viscosity,"303.15 K, x1 = 0.6671",0.4138 ± 0.006 mPa·s
same,mass density,"303.15 K, x1 = 0.7398",800.78 ± 1.7 kg/m3
same,viscosity,"303.15 K, x1 = 0.7398",0.3831 ± 0.0057 mPa·s
same,mass density,"303.15 K, x1 = 0.8253",789.89 ± 1.8 kg/m3
same,viscosity,"303.15 K, x1 = 0.8253",0.3545 ± 0.0054 mPa·s
same,mass density,"303.15 K, x1 = 0.886",782.84 ± 1.9 kg/m3
same,viscosity,"303.15 K, x1 = 0.886",0.3405 ± 0.0052 mPa·s
same,mass density,"303.15 K, x1 = 0.9389",777.52 ± 1.9 kg/m3
same,viscosity,"303.15 K, x1 = 0.9389",0.333 ± 0.0052 mPa·s
same,viscosity,"303.15 K, x1 = 0.999",0.3281 ± 0.0051 mPa·s
same,mass density,"303.15 K, x1 = 1",771.89 ± 1.9 kg/m3
same,viscosity,"303.15 K, x1 = 1",0.328 ± 0.0051 mPa·s
same,mass density,"308.15 K, x1 = 0.051",972.14 ± 0.67 kg/m3
same,viscosity,"308.15 K, x1 = 0.051",0.7964 ± 0.01 mPa·s
same,mass density,"308.15 K, x1 = 0.1169",947.08 ± 0.83 kg/m3
same,viscosity,"308.15 K, x1 = 0.1169",0.7842 ± 0.01 mPa·s
same,mass density,"308.15 K, x1 = 0.1971",916.51 ± 1 kg/m3
same,viscosity,"308.15 K, x1 = 0.1971",0.7218 ± 0.0094 mPa·s
same,mass density,"308.15 K, x1 = 0.2728",891.33 ± 1.2 kg/m3
same,viscosity,"308.15 K, x1 = 0.2728",0.6502 ± 0.0086 mPa·s
same,mass density,"308.15 K, x1 = 0.3601",866.86 ± 1.3 kg/m3
same,viscosity,"308.15 K, x1 = 0.3601",0.5737 ± 0.0078 mPa·s
same,mass density,"308.15 K, x1 = 0.4417",846.98 ± 1.5 kg/m3
same,viscosity,"308.15 K, x1 = 0.4417",0.5121 ± 0.0071 mPa·s
same,mass density,"308.15 K, x1 = 0.5204",830.76 ± 1.6 kg/m3
same,viscosity,"308.15 K, x1 = 0.5204",0.4606 ± 0.0065 mPa·s
same,mass density,"308.15 K, x1 = 0.6012",816.07 ± 1.6 kg/m3
same,viscosity,"308.15 K, x1 = 0.6012",0.4189 ± 0.0061 mPa·s
same,mass density,"308.15 K, x1 = 0.6671",805.22 ± 1.7 kg/m3
same,viscosity,"308.15 K, x1 = 0.6671",0.3902 ± 0.0058 mPa·s
same,mass density,"308.15 K, x1 = 0.7398",794.39 ± 1.8 kg/m3
same,viscosity,"308.15 K, x1 = 0.7398",0.3633 ± 0.0055 mPa·s
same,mass density,"308.15 K, x1 = 0.8253",783.52 ± 1.9 kg/m3
same,viscosity,"308.15 K, x1 = 0.8253",0.3386 ± 0.0052 mPa·s
same,mass density,"308.15 K, x1 = 0.886",776.44 ± 1.9 kg/m3
same,viscosity,"308.15 K, x1 = 0.886",0.3259 ± 0.0051 mPa·s
same,mass density,"308.15 K, x1 = 0.9389",771.07 ± 1.9 kg/m3
same,viscosity,"308.15 K, x1 = 0.9389",0.3173 ± 0.005 mPa·s
same,viscosity,"308.15 K, x1 = 0.999",0.313 ± 0.0049 mPa·s
same,mass density,"308.15 K, x1 = 1",765.46 ± 2 kg/m3
same,viscosity,"308.15 K, x1 = 1",0.3129 ± 0.0049 mPa·s
same,mass density,"313.15 K, x1 = 0.051",969.11 ± 0.69 kg/m3
same,viscosity,"313.15 K, x1 = 0.051",0.7208 ± 0.0093 mPa·s
same,mass density,"313.15 K, x1 = 0.1169",943.32 ± 0.85 kg/m3
same,viscosity,"313.15 K, x1 = 0.1169",0.7155 ± 0.0093 mPa·s
same,mass density,"313.15 K, x1 = 0.1971",912.69 ± 1.1 kg/m3
same,viscosity,"313.15 K, x1 = 0.1971",0.6628 ± 0.0087 mPa·s
same,mass density,"313.15 K, x1 = 0.2728",887.31 ± 1.2 kg/m3
same,viscosity,"313.15 K, x1 = 0.2728",0.5951 ± 0.008 mPa·s
same,mass density,"313.15 K, x1 = 0.3601",862.67 ± 1.4 kg/m3
same,viscosity,"313.15 K, x1 = 0.3601",0.5266 ± 0.0073 mPa·s
same,mass density,"313.15 K, x1 = 0.4417",842.61 ± 1.5 kg/m3
same,viscosity,"313.15 K, x1 = 0.4417",0.4744 ± 0.0067 mPa·s
same,mass density,"313.15 K, x1 = 0.5204",826.18 ± 1.6 kg/m3
same,viscosity,"313.15 K, x1 = 0.5204",0.4317 ± 0.0062 mPa·s
same,mass density,"313.15 K, x1 = 0.6012",811.38 ± 1.7 kg/m3
same,viscosity,"313.15 K, x1 = 0.6012",0.3959 ± 0.0058 mPa·s
same,mass density,"313.15 K, x1 = 0.6671",800.45 ± 1.8 kg/m3
same,viscosity,"313.15 K, x1 = 0.6671",0.3698 ± 0.0056 mPa·s
same,mass density,"313.15 K, x1 = 0.7398",789.71 ± 1.8 kg/m3
same,viscosity,"313.15 K, x1 = 0.7398",0.3471 ± 0.0053 mPa·s
same,mass density,"313.15 K, x1 = 0.8253",778.81 ± 1.9 kg/m3
same,viscosity,"313.15 K, x1 = 0.8253",0.3256 ± 0.0051 mPa·s
same,mass density,"313.15 K, x1 = 0.886",771.75 ± 1.9 kg/m3
same,viscosity,"313.15 K, x1 = 0.886",0.3142 ± 0.005 mPa·s
same,mass density,"313.15 K, x1 = 0.9389",766.36 ± 2 kg/m3
same,viscosity,"313.15 K, x1 = 0.9389",0.3061 ± 0.0049 mPa·s
same,viscosity,"313.15 K, x1 = 0.999",0.301 ± 0.0048 mPa·s
same,mass density,"313.15 K, x1 = 1",760.86 ± 2 kg/m3
same,viscosity,"313.15 K, x1 = 1",0.3009 ± 0.0048 mPa·s
same,mass density,"318.15 K, x1 = 0.051",965.89 ± 0.71 kg/m3
same,viscosity,"318.15 K, x1 = 0.051",0.6522 ± 0.0086 mPa·s
same,mass density,"318.15 K, x1 = 0.1169",939.05 ± 0.88 kg/m3
same,viscosity,"318.15 K, x1 = 0.1169",0.6524 ± 0.0086 mPa·s
same,mass density,"318.15 K, x1 = 0.1971",908.03 ± 1.1 kg/m3
same,viscosity,"318.15 K, x1 = 0.1971",0.6069 ± 0.0081 mPa·s
same,mass density,"318.15 K, x1 = 0.2728",882.39 ± 1.2 kg/m3
same,viscosity,"318.15 K, x1 = 0.2728",0.5462 ± 0.0075 mPa·s
same,mass density,"318.15 K, x1 = 0.3601",857.41 ± 1.4 kg/m3
same,viscosity,"318.15 K, x1 = 0.3601",0.4853 ± 0.0068 mPa·s
same,mass density,"318.15 K, x1 = 0.4417",837.06 ± 1.5 kg/m3
same,viscosity,"318.15 K, x1 = 0.4417",0.4435 ± 0.0064 mPa·s
same,mass density,"318.15 K, x1 = 0.5204",820.41 ± 1.6 kg/m3
same,viscosity,"318.15 K, x1 = 0.5204",0.4089 ± 0.006 mPa·s
same,mass density,"318.15 K, x1 = 0.6012",805.44 ± 1.7 kg/m3
same,viscosity,"318.15 K, x1 = 0.6012",0.3783 ± 0.0056 mPa·s
same,mass density,"318.15 K, x1 = 0.6671",794.36 ± 1.8 kg/m3
same,viscosity,"318.15 K, x1 = 0.6671",0.3556 ± 0.0054 mPa·s
same,mass density,"318.15 K, x1 = 0.7398",783.69 ± 1.9 kg/m3
same,viscosity,"318.15 K, x1 = 0.7398",0.3353 ± 0.0052 mPa·s
same,mass density,"318.15 K, x1 = 0.8253",772.68 ± 1.9 kg/m3
same,viscosity,"318.15 K, x1 = 0.8253",0.3159 ± 0.005 mPa·s
same,mass density,"318.15 K, x1 = 0.886",765.67 ± 2 kg/m3
same,viscosity,"318.15 K, x1 = 0.886",0.3039 ± 0.0048 mPa·s
same,mass density,"318.15 K, x1 = 0.9389",760.29 ± 2 kg/m3
same,viscosity,"318.15 K, x1 = 0.9389",0.2963 ± 0.0048 mPa·s
same,viscosity,"318.15 K, x1 = 0.999",0.29 ± 0.0047 mPa·s
same,mass density,"318.15 K, x1 = 1",754.76 ± 2 kg/m3
same,viscosity,"318.15 K, x1 = 1",0.2899 ± 0.0047 mPa·s

# Source: the NIST ThermoML archive (doi:10.1016/j.jct.2005.08.009)
